According to patent US20070148258A1, “Dialysates and methods and systems related thereto” (priority 2003, published 2007):
Read-outs that look alike come from different tables or passages of the source.

Assays:
normal aortas = experiment: Calcification of normal aortas cultured in high-PO4 medium with added enzymes; type: cell-based, rat; settings: enzyme added to culture in DMEM with 3.8 mM PO4 (inorganic pyrophosphatase 12-20 units/ml, 9 days)
[1] = human, in vivo
Procedure: To determine whether PPi metabolism is altered in hemodialysis patients, plasma levels and dialytic clearance of PPi were measured in stable hemodialysis patients. Predialysis plasma samples were obtained from 15 patients in an outpatient dialysis unit and from 23 inpatients. The inpatients were clinically stable and were admitted for transplant evaluation or for dialysis access problems.

aortic cultures = settings: based on rate of hydrolysis of [32P]pyrophosphate
injured aortas = test system: injured aortas
Procedure: Injured aortas were incubated for 6 days in DMEM containing 3.8 mM PO4^−3 and varying concentrations of pyrophosphate. Results are means of at least 4 aortic rings.

[2] = human, in vivo; remark: listed apart in the source
Procedure: Samples were drawn immediately before and immediately after dialysis from the predialyzer tubing. The lines to the left and right indicate the mean values before and after dialysis respectively.
(§1) Several studies were undertaken to determine the extent of PPi removal with dialysis. […] In 17 patients, some of whom were included in the predialysis data, plasma PPi concentration was measured before and after dialysis (FIG. 3).
Dialysate was collected during 4 treatments in 4 different patients order to measure the total amount of PPi removed.

[3] = 4 L PPi in physiologic saline, 400 ml/min, dialysate without calcium 800 ml/min, 2.1 m^2 cellulose acetate membrane
Procedure: FIG. 2 is an exemplary graph illustrating the results of in vitro dialysis of pyrophosphate. […] The concentration of pyrophosphate was measured at the times indicated. The line represents a single exponential fit.
as §1

Molecule	Effect on calcification of normal aortas (normal aortas)	Mean plasma [PPi] lower in hemodialysis patients than in normal subjects [1]	Estimated pyrophosphate concentration 3 days after adding (aortic cultures; 5 μM added)	Estimated pyrophosphate concentration 3 days after adding (aortic cultures; 10 μM added)	Estimated pyrophosphate concentration 3 days after adding (aortic cultures; 30 μM added)	Inhibition of calcification in injured aortas (injured aortas; 2.5 M pyrophosphate, 6 days in DMEM with 3.8 mM PO4)	Concentrations at which inhibition of vascular calcification occurs in vitro (injured aortas; concentrations normally present in human plasma)	Concentration that maximally inhibited calcification in injured aortas (injured aortas; cultured rat aortas)	Decrease of plasma PPi concentration after dialysis, range [2]	In vitro dialyzer clearance of PPi [3]
Alkaline phosphatase	induced calcification	–	–	–	–	–	–	–	–	–
O=P(O)(O)OP(=O)(O)O [pyrophosphate]	–	31%	18 µM	3.1 µM	7.9 µM	no inhibition	3 to 5 µM	approximately 3 μM	4-59%	36%
